In the CheMixHub ionic liquid set:

Assay: xn = mol fraction of the nth substance listed

O=C(O)CC(=O)O + CC[n+]1ccn(C)c1.[Cl-]
Conditions	viscosity [mPa·s]
303.15 K, 101.33 kPa, x2 = 0.667	138.9

[Cl][Al]([Cl])[Cl] + CC[n+]1ccn(C)c1.[Cl-]
101 kPa
Conditions	electrical conductivity [S/m]
263 K, frequency 0.1 MHz, x1 = 0.5455	0.14
263 K, frequency 0.1 MHz, x1 = 0.5652	0.13
263 K, frequency 0.1 MHz, x1 = 0.5833	0.57
263 K, frequency 0.1 MHz, x1 = 0.6	0.36
263 K, frequency 0.1 MHz, x1 = 0.6296	0.35
273 K, frequency 0.1 MHz, x1 = 0.5455	0.59
273 K, frequency 0.1 MHz, x1 = 0.5652	0.92
273 K, frequency 0.1 MHz, x1 = 0.5833	0.84
273 K, frequency 0.1 MHz, x1 = 0.6	0.53
273 K, frequency 0.1 MHz, x1 = 0.6296	0.52
283 K, frequency 0.1 MHz, x1 = 0.5238	1.24
283 K, frequency 0.1 MHz, x1 = 0.5455	1.34
283 K, frequency 0.1 MHz, x1 = 0.5652	1.33
283 K, frequency 0.1 MHz, x1 = 0.5833	1.13
283 K, frequency 0.1 MHz, x1 = 0.6	0.73
283 K, frequency 0.1 MHz, x1 = 0.6296	0.73
293 K, frequency 0.1 MHz, x1 = 0.5238	1.58
293 K, frequency 0.1 MHz, x1 = 0.5455	1.81
293 K, frequency 0.1 MHz, x1 = 0.5652	1.73
293 K, frequency 0.1 MHz, x1 = 0.6	0.96
293 K, frequency 0.1 MHz, x1 = 0.6296	0.99
303 K, frequency 0.1 MHz, x1 = 0.5238	2.05
303 K, frequency 0.1 MHz, x1 = 0.5455	2.47
303 K, frequency 0.1 MHz, x1 = 0.5652	2.3
303 K, frequency 0.1 MHz, x1 = 0.5833	1.89
303 K, frequency 0.1 MHz, x1 = 0.6	1.25
303 K, frequency 0.1 MHz, x1 = 0.6296	1.29
303.15 K, frequency 0 MHz, x1 = 0.6	1.92
303.15 K, frequency 0 MHz, x1 = 0.63	1.8
303.15 K, frequency 0 MHz, x1 = 0.67	1.64
306.15 K, frequency 1 MHz, x2 = 0.556	1.46
306.15 K, frequency 1 MHz, x2 = 0.67	0.409
313 K, frequency 0.1 MHz, x1 = 0.5238	2.58
313 K, frequency 0.1 MHz, x1 = 0.5652	2.95
313 K, frequency 0.1 MHz, x1 = 0.5833	2.34
313 K, frequency 0.1 MHz, x1 = 0.6	1.64
313 K, frequency 0.1 MHz, x1 = 0.6296	1.52
323 K, frequency 0.1 MHz, x1 = 0.5238	3.35
323 K, frequency 0.1 MHz, x1 = 0.5455	3.65
323 K, frequency 0.1 MHz, x1 = 0.5652	3.37
323 K, frequency 0.1 MHz, x1 = 0.5833	2.85
323 K, frequency 0.1 MHz, x1 = 0.6	2.18
323 K, frequency 0.1 MHz, x1 = 0.6296	1.83
333 K, frequency 0.1 MHz, x1 = 0.5238	4.09
333 K, frequency 0.1 MHz, x1 = 0.5455	3.96
333 K, frequency 0.1 MHz, x1 = 0.5652	4.11
333 K, frequency 0.1 MHz, x1 = 0.5833	3.04
333 K, frequency 0.1 MHz, x1 = 0.6	2.4
333 K, frequency 0.1 MHz, x1 = 0.6296	2.16
342.1 K, frequency 0.1 MHz, x1 = 0.5238	5.15
343 K, frequency 0.1 MHz, x1 = 0.5455	4.63
343 K, frequency 0.1 MHz, x1 = 0.5652	4.72
343 K, frequency 0.1 MHz, x1 = 0.5833	3.21
343 K, frequency 0.1 MHz, x1 = 0.6	2.82
343 K, frequency 0.1 MHz, x1 = 0.6296	2.49
352.1 K, frequency 0.1 MHz, x1 = 0.5238	6.3
353 K, frequency 0.1 MHz, x1 = 0.5652	5.34
353 K, frequency 0.1 MHz, x1 = 0.5833	4.2
353 K, frequency 0.1 MHz, x1 = 0.6	3.2
353 K, frequency 0.1 MHz, x1 = 0.6296	2.95
362.1 K, frequency 0.1 MHz, x1 = 0.6	3.69
363 K, frequency 0.1 MHz, x1 = 0.5238	6.4
363 K, frequency 0.1 MHz, x1 = 0.5455	5.69
363 K, frequency 0.1 MHz, x1 = 0.5652	5.87
363 K, frequency 0.1 MHz, x1 = 0.5833	4.33
363 K, frequency 0.1 MHz, x1 = 0.6296	3.3

101.3 kPa
Conditions	electrical conductivity [S/m]
270.1 K, x2 = 0.3333	0.533
270.4 K, x2 = 0.4348	0.75
270.6 K, x2 = 0.5556	0.36
271.1 K, x2 = 0.3636	0.6
271.1 K, x2 = 0.4	0.702
275.6 K, x2 = 0.4	0.822
275.6 K, x2 = 0.5263	0.832
275.6 K, x2 = 0.5556	0.471
276.1 K, x2 = 0.3333	0.711
276.1 K, x2 = 0.4348	0.901
277.1 K, x2 = 0.3636	0.798
280.6 K, x2 = 0.4348	1.01
281.1 K, x2 = 0.3636	0.946
281.1 K, x2 = 0.4	1.06
281.1 K, x2 = 0.4762	1.18
281.1 K, x2 = 0.5	1.28
281.1 K, x2 = 0.5263	1.03
281.1 K, x2 = 0.5556	0.595
282.1 K, x2 = 0.3333	0.896
288.15 K, x2 = 0.4348	1.34
290.15 K, x2 = 0.3636	1.33
290.15 K, x2 = 0.4762	1.59
290.65 K, x2 = 0.4	1.4
290.65 K, x2 = 0.5263	1.4
290.65 K, x2 = 0.5556	0.87
291.15 K, x2 = 0.5	1.83
292.15 K, x2 = 0.3333	1.23
303.15 K, x2 = 0.3333	1.65
303.15 K, x2 = 0.3636	1.82
303.15 K, x2 = 0.5263	1.93
303.15 K, x2 = 0.5556	1.33
304.15 K, x2 = 0.4762	2.42
304.15 K, x2 = 0.5	2.57
305.15 K, x2 = 0.4	2.03
305.15 K, x2 = 0.4348	2.24
309.15 K, x2 = 0.5556	1.57
312.65 K, x2 = 0.5263	2.46
314.15 K, x2 = 0.4348	2.69
314.65 K, x2 = 0.4	2.48
315.65 K, x2 = 0.3636	2.3
316.15 K, x2 = 0.3333	2.12
317.65 K, x2 = 0.4762	3.2
317.65 K, x2 = 0.5	3.3
320.15 K, x2 = 0.5556	2.21
321.15 K, x2 = 0.5263	3.01
323.15 K, x2 = 0.3333	2.46
323.15 K, x2 = 0.3636	2.64
323.15 K, x2 = 0.4	2.92
324.15 K, x2 = 0.4348	3.2
324.15 K, x2 = 0.4762	3.63
324.15 K, x2 = 0.5	3.79
330.15 K, x2 = 0.5556	2.71
331.15 K, x2 = 0.4	3.4
331.15 K, x2 = 0.5263	3.65
332.15 K, x2 = 0.4348	3.7
332.15 K, x2 = 0.4762	4.14
332.65 K, x2 = 0.5	4.37
333.15 K, x2 = 0.3333	2.93
334.15 K, x2 = 0.3636	3.18
341.15 K, x2 = 0.4348	4.28
342.15 K, x2 = 0.4	4.02
342.15 K, x2 = 0.4762	4.9
342.15 K, x2 = 0.5	5.03
342.15 K, x2 = 0.5263	4.39
343.15 K, x2 = 0.3333	3.38
343.15 K, x2 = 0.3636	3.64
344.15 K, x2 = 0.5556	3.63
350.65 K, x2 = 0.4	4.54
351.15 K, x2 = 0.4348	4.88
352.15 K, x2 = 0.5263	5.04
353.15 K, x2 = 0.3333	3.88
353.15 K, x2 = 0.3636	4.2
353.15 K, x2 = 0.4762	5.63
353.15 K, x2 = 0.5	5.79
353.15 K, x2 = 0.5556	4.27
361.15 K, x2 = 0.4	5.18
361.15 K, x2 = 0.4348	5.54
361.15 K, x2 = 0.4762	6.35
361.15 K, x2 = 0.5	6.43
363.15 K, x2 = 0.3333	4.45
363.15 K, x2 = 0.3636	4.8
363.15 K, x2 = 0.5263	5.91
364.15 K, x2 = 0.5556	5.09
370.15 K, x2 = 0.3333	4.82
370.15 K, x2 = 0.3636	5.19
371.15 K, x2 = 0.4	5.84
371.15 K, x2 = 0.4348	6.23
371.15 K, x2 = 0.4762	7.02
371.15 K, x2 = 0.5	7.19
372.15 K, x2 = 0.5263	6.56
374.15 K, x2 = 0.5556	5.89

CC(C)O + CC[n+]1ccn(CCOC)c1.N#C[S-]
100 kPa, x2 = 0
Conditions	viscosity [mPa·s]
288.15 K	2.83
293.15 K	2.42
298.15 K	2.07
303.15 K	1.79
308.15 K	1.552
313.15 K	1.352
318.15 K	1.183

CCCCO + CC[n+]1ccn(CCOC)c1.N#C[S-]
100 kPa, x2 = 0
Conditions	viscosity [mPa·s]
288.15 K	3.36
293.15 K	2.94
298.15 K	2.58
303.15 K	2.27
308.15 K	2.01
313.15 K	1.78
318.15 K	1.585

CC(C)O + CC[n+]1ccn(CCOC)c1.O=S(=O)([O-])C(F)(F)F
101 kPa, x2 = 0
Conditions	viscosity [mPa·s]
288.15 K	2.806
293.15 K	2.397
298.15 K	2.059
303.15 K	1.777
308.15 K	1.542
313.15 K	1.344
318.15 K	1.176

CCCCCCCC[n+]1ccn(C)c1.F[P-](F)(F)(F)(F)F + CN(C)C=O
viscosity [mPa·s], 101 kPa
Conditions	293.15 K	303.15 K	313.15 K	323.15 K	333.15 K	343.15 K	353.15 K	363.15 K
x1 = 0.002835	0.969	0.865	0.776	0.705	0.644	0.591	0.546	0.505
x1 = 0.00569	0.994	0.887	0.798	0.723	0.659	0.604	0.556	0.514
x1 = 0.01089	1.044	0.929	0.838	0.754	0.686	0.628	0.578	0.533
x1 = 0.01648	1.097	0.973	0.879	0.786	0.714	0.652	0.599	0.552
x1 = 0.02114	1.144	1.013	0.916	0.815	0.739	0.674	0.617	0.569
x1 = 0.02677	1.201	1.059	0.961	0.848	0.768	0.699	0.639	0.588

CCCC[n+]1ccn(C)c1.[Cl-] + CN(C)C=O
101 kPa
Conditions	electrical conductivity [S/m]	viscosity [mPa·s]
293.15 K, x2 = 0.9	–	3.4
298.15 K, x1 = 0.0172	–	0.98
298.15 K, x2 = 0.5541	0.322	41.1
298.15 K, x2 = 0.975	0.574	0.96
303.15 K, x2 = 0.5056	–	52.3
303.15 K, x2 = 0.6034	–	21.3
303.15 K, x2 = 0.7982	–	4.15
303.15 K, x2 = 0.9503	–	1.14
308.15 K, x1 = 0.0086	–	0.82
308.15 K, x2 = 0.8014	–	3.51
308.15 K, x2 = 0.8999	–	1.53
308.15 K, x2 = 0.974	–	0.94
